Measurements from US7429660B2, “ATM inhibitors” (Kudos Pharmaceuticals Limited, priority 2003, dated 2008).

Molecular target: T1, ATM protein immunoprecipitated from HeLa cell nuclear extract (Homo sapiens, UniProt Q13315)
T1 construct: ATM protein was immunoprecipitated from HeLa cell nuclear extract; endogenous in cells; host or cells: HeLa cell nuclear extract (immunoprecipitated with rabbit polyclonal anti-ATM antiserum)
Experiment: In vitro ATM inhibition assay (phosphorylation of GSTp53N66 on serine 15, chemiluminescent detection); also: tested normally from 100 µM down to 0.1 nM
Assay type: biochemical
Conditions: read-out: IC50 values (the concentration at which 50% of the enzyme activity is inhibited), ATM inhibition
Protocol: In order to assess the inhibitory action of the compounds against ATM in vitro, the following assay was used to determine IC50 values. ATM protein was immunoprecipitated from HeLa cell nuclear extract using rabbit polyclonal anti-sera raised to the C-terminal ˜500 amino-acid residues of the human ATM protein. […] 10 μl of immunoprecipitated ATM in Buffer C (50 mM Hepes, pH 7.4, 6 mM MgCl2, 150 mM NaCl, 0.1 mM sodium orthovanadate, 4 mM MnCl2, 0.1 mM dithiothreitol, 10% glycerol) was added to 32.5 μl of buffer C containing 1 μg of the ATM substrate GSTp53N66 in a V-bottomed 96 well polypropylene plate. The GSTp53N66 substrate is the amino terminal 66 amino acid residues of human wild type p53 fused to glutathione S-transferase. […] Varying concentrations of inhibitor were then added. […] After 10 minutes of incubation at 37° C., the reactions were initiated by the addition of 5 μl of 500 μM Na-ATP. After 1 hour with shaking at 37° C., 150 μl of phosphate buffered saline (PBS) was added to the reaction and the plate centrifuged at 1500 rpm for 10 minutes. 5 μl of the reaction was then transferred to a 96 well opaque white plate containing 45 μl of PBS to allow the GSTp53N66 substrate to bind to the plate wells. The plate was covered and incubated at room temperature for 1 hour with shaking before discarding the contents. The plate wells were washed twice by the addition of PBS prior to the addition of 3% (w/v) bovine serum albumin (BSA) in PBS. The plate was incubated at room temperature for 1 hour with shaking before discarding the contents and washing twice with PBS. To the wells, 50 μl of a 1:10,000 dilution of primary phosphoserine-15 antibody (Cell Signaling Technology, #9284L) in 3% BSA/PBS was added to detect the phosphorylation event on the serine 15 residue of p53 elicited by the ATM kinase. […] The wells were then washed four times with PBS before the addition of chemiluminescence reagent (NEN Renaissance, NEL105). The plate was then shaken briefly, covered with a transparent plate seal and transferred to a TopCount NXT for chemiluminescent counting. Counts per second, following a one second counting time, were recorded for each reaction.
The enzyme activity for each compound is then calculated using the following equation:
[formula] Results In vitro ATM assays
Compounds were assayed for ATM inhibition activity using the method described above. […] These are determined over a range of different concentrations, normally from 100 μM down to 0.1 nM. Such IC50 values are used as comparative values to identify increased compound potencies.

T1 sequence (Q13315 whole entry): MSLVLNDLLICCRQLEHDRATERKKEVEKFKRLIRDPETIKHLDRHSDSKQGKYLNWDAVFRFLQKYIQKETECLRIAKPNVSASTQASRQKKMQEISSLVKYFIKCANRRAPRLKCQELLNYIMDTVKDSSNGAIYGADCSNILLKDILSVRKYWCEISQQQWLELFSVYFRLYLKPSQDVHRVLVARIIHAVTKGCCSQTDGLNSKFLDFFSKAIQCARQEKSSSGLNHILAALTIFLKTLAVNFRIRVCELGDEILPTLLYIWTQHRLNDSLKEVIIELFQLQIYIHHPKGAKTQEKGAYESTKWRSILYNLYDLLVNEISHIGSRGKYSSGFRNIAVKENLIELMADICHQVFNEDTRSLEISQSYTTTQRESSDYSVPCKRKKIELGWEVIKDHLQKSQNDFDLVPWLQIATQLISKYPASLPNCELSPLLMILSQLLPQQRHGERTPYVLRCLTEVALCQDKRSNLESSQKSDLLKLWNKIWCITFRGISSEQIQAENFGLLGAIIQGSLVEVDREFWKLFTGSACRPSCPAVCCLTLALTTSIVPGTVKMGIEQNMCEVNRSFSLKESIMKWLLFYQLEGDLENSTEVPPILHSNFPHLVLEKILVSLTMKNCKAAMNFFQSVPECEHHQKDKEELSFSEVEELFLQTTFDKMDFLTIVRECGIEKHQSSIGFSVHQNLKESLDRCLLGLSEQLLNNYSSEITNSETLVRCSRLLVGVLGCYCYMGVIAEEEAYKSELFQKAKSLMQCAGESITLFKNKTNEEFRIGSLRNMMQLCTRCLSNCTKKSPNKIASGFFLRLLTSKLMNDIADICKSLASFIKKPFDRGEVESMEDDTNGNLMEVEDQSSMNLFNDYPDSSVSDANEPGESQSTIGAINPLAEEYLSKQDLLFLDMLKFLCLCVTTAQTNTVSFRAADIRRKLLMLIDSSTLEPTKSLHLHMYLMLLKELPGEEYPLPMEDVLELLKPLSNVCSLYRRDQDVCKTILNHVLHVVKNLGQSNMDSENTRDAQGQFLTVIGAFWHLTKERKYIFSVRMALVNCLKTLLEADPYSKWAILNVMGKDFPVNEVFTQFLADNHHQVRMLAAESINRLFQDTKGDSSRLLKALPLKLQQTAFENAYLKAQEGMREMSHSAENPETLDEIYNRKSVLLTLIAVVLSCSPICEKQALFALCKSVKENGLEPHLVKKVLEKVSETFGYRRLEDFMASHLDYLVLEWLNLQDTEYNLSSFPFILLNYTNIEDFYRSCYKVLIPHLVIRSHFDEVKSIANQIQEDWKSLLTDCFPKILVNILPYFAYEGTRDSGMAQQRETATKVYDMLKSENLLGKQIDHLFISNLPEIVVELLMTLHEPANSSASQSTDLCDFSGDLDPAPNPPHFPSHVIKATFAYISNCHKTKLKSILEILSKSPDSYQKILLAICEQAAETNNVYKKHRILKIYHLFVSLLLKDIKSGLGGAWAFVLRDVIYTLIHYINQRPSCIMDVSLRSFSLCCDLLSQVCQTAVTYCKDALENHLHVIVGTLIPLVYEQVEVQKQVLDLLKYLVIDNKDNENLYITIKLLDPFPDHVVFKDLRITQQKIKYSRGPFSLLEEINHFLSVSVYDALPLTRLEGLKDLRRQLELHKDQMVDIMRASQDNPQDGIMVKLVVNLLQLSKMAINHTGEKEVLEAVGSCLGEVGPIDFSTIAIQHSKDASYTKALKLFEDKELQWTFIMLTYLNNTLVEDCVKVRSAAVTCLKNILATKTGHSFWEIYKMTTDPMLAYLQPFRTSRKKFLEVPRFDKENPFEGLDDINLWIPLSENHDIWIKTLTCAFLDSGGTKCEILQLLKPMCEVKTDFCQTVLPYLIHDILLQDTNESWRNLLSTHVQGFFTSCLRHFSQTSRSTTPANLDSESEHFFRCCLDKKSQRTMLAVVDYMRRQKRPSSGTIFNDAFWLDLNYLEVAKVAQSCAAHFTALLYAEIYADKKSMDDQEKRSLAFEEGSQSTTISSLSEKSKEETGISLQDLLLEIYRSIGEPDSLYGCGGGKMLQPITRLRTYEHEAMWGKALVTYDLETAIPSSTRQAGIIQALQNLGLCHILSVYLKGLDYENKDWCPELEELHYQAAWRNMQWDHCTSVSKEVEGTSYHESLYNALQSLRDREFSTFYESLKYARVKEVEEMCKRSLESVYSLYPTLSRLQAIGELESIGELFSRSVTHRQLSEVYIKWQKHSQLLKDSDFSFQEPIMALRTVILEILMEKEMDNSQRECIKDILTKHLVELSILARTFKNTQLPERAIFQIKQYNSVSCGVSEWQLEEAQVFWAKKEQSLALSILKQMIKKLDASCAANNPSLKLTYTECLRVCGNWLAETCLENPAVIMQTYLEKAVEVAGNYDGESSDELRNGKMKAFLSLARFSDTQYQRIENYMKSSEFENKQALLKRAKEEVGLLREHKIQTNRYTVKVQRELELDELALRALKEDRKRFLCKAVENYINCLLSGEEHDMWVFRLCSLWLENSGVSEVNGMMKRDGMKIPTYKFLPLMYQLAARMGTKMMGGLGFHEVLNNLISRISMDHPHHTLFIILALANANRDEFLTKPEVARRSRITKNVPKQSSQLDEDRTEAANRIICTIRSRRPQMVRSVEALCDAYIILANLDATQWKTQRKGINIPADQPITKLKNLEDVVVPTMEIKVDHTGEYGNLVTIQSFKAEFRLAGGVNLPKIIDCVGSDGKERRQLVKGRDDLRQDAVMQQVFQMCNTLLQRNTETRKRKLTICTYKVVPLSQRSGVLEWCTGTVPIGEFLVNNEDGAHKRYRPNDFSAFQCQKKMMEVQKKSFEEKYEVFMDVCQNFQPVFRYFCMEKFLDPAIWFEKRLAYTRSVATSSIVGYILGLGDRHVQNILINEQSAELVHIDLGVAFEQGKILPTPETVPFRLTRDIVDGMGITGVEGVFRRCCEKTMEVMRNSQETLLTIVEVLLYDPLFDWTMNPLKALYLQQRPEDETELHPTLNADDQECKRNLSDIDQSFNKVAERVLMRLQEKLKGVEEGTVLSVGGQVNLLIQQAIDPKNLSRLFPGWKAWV

IC50	Compound
< 200 nM	CN1CCN(C(=O)c2ccc3c(c2)Sc2cccc(-c4cc(=O)cc(N5CCOCC5)o4)c2S3)CC1 [Compound 6]
< 200 nM	O=C(c1ccc2c(c1)Sc1cccc(-c3cc(=O)cc(N4CCOCC4)o3)c1S2)N1CCN(c2ccccn2)CC1 [Compound 8]
< 200 nM	O=C(c1ccc2c(c1)Sc1cccc(-c3cc(=O)cc(N4CCOCC4)o3)c1S2)N1CCN(c2ccncc2)CC1 [Compound 9]
< 200 nM	CC(=O)N1CCN(C(=O)c2ccc3c(c2)Sc2cccc(-c4cc(=O)cc(N5CCOCC5)o4)c2S3)CC1 [Compound 11]
< 200 nM	O=C(c1ccc2c(c1)Sc1cccc(-c3cc(=O)cc(N4CCOCC4)o3)c1S2)N1CCN(c2ncccn2)CC1 [Compound 13]
< 200 nM	CC(C)NC(=O)CN1CCN(C(=O)c2ccc3c(c2)Sc2cccc(-c4cc(=O)cc(N5CCOCC5)o4)c2S3)CC1 [Compound 14]
< 200 nM	O=C(c1ccc2c(c1)Sc1cccc(-c3cc(=O)cc(N4CCOCC4)o3)c1S2)N1CCN(c2ccccc2F)CC1 [Compound 15]
< 200 nM	CC(C)(C)OC(=O)N1CCN(C(=O)c2ccc3c(c2)Sc2cccc(-c4cc(=O)cc(N5CCOCC5)o4)c2S3)CC1 [Compound 16]
< 200 nM	COCCN1CCN(C(=O)c2ccc3c(c2)Sc2cccc(-c4cc(=O)cc(N5CCOCC5)o4)c2S3)CC1 [Compound 17]
< 200 nM	O=C(c1ccc2c(c1)Sc1cccc(-c3cc(=O)cc(N4CCOCC4)o3)c1S2)N1CCN(C(=O)c2ccco2)CC1 [Compound 18]
< 200 nM	O=C(c1ccc2c(c1)Sc1cccc(-c3cc(=O)cc(N4CCOCC4)o3)c1S2)N1CCNCC1 [Compound 19]
< 200 nM	Nc1ccc2c(c1)Sc1cccc(-c3cc(=O)cc(N4CCOCC4)o3)c1S2 [Compound 21, 2-(7-Amino-thianthren-1-yl)-6-morpholin-4-yl-pyran-4-one]
< 200 nM	CC(=O)Nc1ccc2c(c1)Sc1cccc(-c3cc(=O)cc(N4CCOCC4)o3)c1S2 [Compound 22]
< 200 nM	O=C(Nc1ccc2c(c1)Sc1cccc(-c3cc(=O)cc(N4CCOCC4)o3)c1S2)C1CC1 [Compound 24]
< 200 nM	O=C(Nc1ccc2c(c1)Sc1cccc(-c3cc(=O)cc(N4CCOCC4)o3)c1S2)c1ccc2c(c1)OCO2 [Compound 25]
< 200 nM	COC(=O)CCCC(=O)Nc1ccc2c(c1)Sc1cccc(-c3cc(=O)cc(N4CCOCC4)o3)c1S2 [Compound 26]
< 200 nM	N#Cc1ccc(C(=O)Nc2ccc3c(c2)Sc2cccc(-c4cc(=O)cc(N5CCOCC5)o4)c2S3)cc1 [Compound 27]
< 200 nM	O=C(Nc1ccc2c(c1)Sc1cccc(-c3cc(=O)cc(N4CCOCC4)o3)c1S2)c1cccnc1 [Compound 28]
< 200 nM	O=C(Nc1ccc2c(c1)Sc1cccc(-c3cc(=O)cc(N4CCOCC4)o3)c1S2)c1ccco1 [Compound 29]
< 200 nM	O=C(Nc1ccc2c(c1)Sc1cccc(-c3cc(=O)cc(N4CCOCC4)o3)c1S2)c1ccncc1 [Compound 30]
< 200 nM	COc1ccccc1C(=O)Nc1ccc2c(c1)Sc1cccc(-c3cc(=O)cc(N4CCOCC4)o3)c1S2 [Compound 31]
< 200 nM	O=C(Nc1ccc2c(c1)Sc1cccc(-c3cc(=O)cc(N4CCOCC4)o3)c1S2)c1cccs1 [Compound 32]
< 200 nM	O=C(Cc1cccs1)Nc1ccc2c(c1)Sc1cccc(-c3cc(=O)cc(N4CCOCC4)o3)c1S2 [Compound 33]
< 200 nM	O=C(Nc1ccc2c(c1)Sc1cccc(-c3cc(=O)cc(N4CCOCC4)o3)c1S2)C1CCC1 [Compound 34]
< 200 nM	Cc1noc(C)c1C(=O)Nc1ccc2c(c1)Sc1cccc(-c3cc(=O)cc(N4CCOCC4)o3)c1S2 [Compound 35]
< 200 nM	COC(=O)C(=O)Nc1ccc2c(c1)Sc1cccc(-c3cc(=O)cc(N4CCOCC4)o3)c1S2 [Compound 36]
< 200 nM	Cn1nc(O)cc1C(=O)Nc1ccc2c(c1)Sc1cccc(-c3cc(=O)cc(N4CCOCC4)o3)c1S2 [Compound 37]
< 200 nM	CC(=O)N1CCC(C(=O)Nc2ccc3c(c2)Sc2cccc(-c4cc(=O)cc(N5CCOCC5)o4)c2S3)CC1 [Compound 38]
